Here are results for two compounds from publication PMC6491884, “Synthesis and Biological Evaluation of 4β-N-Acetylamino Substituted Podophyllotoxin Derivatives as Novel Anticancer Agents” (Frontiers in Chemistry, 2019).

A value given as a limit tells only on which side of the number the result lay.

For series [1], the system named is HeLA cells. Kind of series: Hoechst 33258 staining, HeLA. It is filed as cell-based, human. The note with it: 0.75/1.5/3.0 μM, 24 h, vs vehicle 0.1% DMSO. As to the method:
(§1) Apoptosis is one of the major pathways leading to the process of cell death. Visualization of chromatin condensation as well as nuclear shrinking and fragmentation—known as classic characteristics of apoptosis—was carried out in the presence of a representative compound 12g by staining T24 and HeLA cells with Hoechst 33258, by which apoptosis was confirmed as the cause of reduced cell viability.
(§2) T24 and HeLA cells were seeded at a density of 3 × 10^4 cells per well and cultured in 6 well-plates on a cover slip for 24 h at 37°C. Compound 12g treated T24 and HeLA cancer cells for 24 h at 37°C with concentrations of 0.5/1.0/2.0 and 0.75/1.5/3.0 μM, respectively. Afterward, the treated cells were fixed with 4% paraformaldehyde (PFA) for 30 min and stained with 5 μg/mL Hoechst 33258 (bis-benzimide; KeyGEN Bio TECH, China) for 30 min. Nuclei were stained with Hoechst 33258 to examine chromatin condensation or nuclear fragmentation, morphological characteristics of apoptosis. After the cells were washed twice with PBS, the cover slip was inverted and placed on a glass slide and mounted. Apoptotic cells with fluorescence of the soluble DNA fragments were detected directly and photographed under a phase contrast microscope (OLYMPUS IX51, Japan) in a Varian Fluorometer at an excitation wavelength of 365 nm and emission wavelength of 460 nm (Shareef et al., [2015]).

For series [2], the system named is T24 cells. Kind of series: Hoechst 33258 staining, T24. It is filed as cell-based, human. As to conditions: T24, 0.5/1.0/2.0 μM, 24 h, vs vehicle 0.1% DMSO. As for the experimental part: as §1, §2
In series [3] the test system is HeLA cells. Briefly: Cell cycle distribution analysis (FACS, propidium iodide), HeLA. In kind it is cell-based, human. The note with it: 24 h. As to the method: (§3) Flow cytometry analysis was carried out to evaluate cell cycle changes and gain further insight into the mode of action with respect to the anti-proliferative effect of compound 12g. HeLA and T24 cancer cells were treated with the selected compound 12g for […] at three different gradient concentrations. The cell cycle accumulation was examined by the propidium iodide staining and cytometric quantification after the cancer cells were cultured for 24 h.
(§4) To understand the cell cycle effect of the synthesized analogs, cell cycle distribution analysis was performed by FACS (Becton Dickinson, San Jose, CA, USA). T24 and HeLA cells were treated with compound 12g for 24 h at 37°C with concentrations of 0.5/1.0/2.0 and 0.75/1.5/3.0 μM, respectively. After treatment, the cells were washed once with PBS and fixed with 70% ice-cold ethanol at […] for overnight. Ethanol was removed by Centrifugation. The cells were stained with a solution containing 0.1% Triton-X 100 (Sigma), 0.2 mg/mL RNase (Sigma), and […] propidium iodide (PI, Sigma) in the dark for 30 min at room temperature. Then, cell cycle distribution was analyzed by using a FACS can flow cytometer (Chen et al., [2013]).

Series [4] deals with HaCaT (human immortalized epidermal cells). Briefly: MTT growth inhibition assay, HaCaT normal cells. It is filed as cell-based. As to conditions: 48 h, read-out: IC50 (μM) HaCaT, MTT, 48 h, n = 3, normal cell line. As to the method:
(§5) Target compounds 12a–t were evaluated for in vitro cytotoxicity against four human tumor cell lines, including H460 (non-small cell lung carcinoma), HeLA (human cervical carcinoma), EC9706 (human esophageal squamous cell carcinoma), and T24 (human bladder carcinoma), using HaCaT (human immortalized epidermal cells) as a human non-malignant cell line. Etoposide (3) was included as a positive control. The screening procedure was based on the 3-(4, 5-dimethylthiazol-2-yl)-2, 5-diphenyltetrazoliun bromide (MTT) growth inhibition assay with triplicate experiments, and the results are summarized in Table 1.
(§6) The four human cancer cell lines and a normal human epidermal cell line of the screening panel, including H460 (human non-small cell lung carcinoma), HeLA (human cervical carcinoma), EC9706 (human esophageal squamous cell carcinoma), T24 (human bladder carcinoma), and HaCaT (human immortalized epidermal cells), were purchased from American Type Culture Collection (ATCC, Manassas, VA, U.S.A.). H460, EC9706, and T24 were maintained in RPMI 1640 medium containing 10% Fetal Bovine Serum, 100 units/ml penicillin, 100 μg/ml streptomycin under humidified incubator with 5% CO2 atmosphere at 37°C. HeLA and HaCaT were maintained in Dulbecco′s […] (DMEM) supplemented with 10% Fetal Bovine Serum 100 units/ml penicillin, 100 μg/ml streptomycin in a humidified incubator and 5% CO2 atmosphere at 37°C. Logarithmically growing cells were used for the following experiments.
(§7) The cytotoxicity of the synthesized compounds 12a–t against a panel of human cell lines was determined by the 3-(4,5-dimethylthiazol-2-yl)-2,5-diphenyltetrazoliun bromide (MTT) growth inhibition assay. The five human cell lines were, respectively, plated in 96-well-culture plates at the density of 1 × 10^5 cells per well and incubated for 24 h. Cells were exposed to different concentrations of synthetic podophyllotoxin derivatives for 48 h. MTT was added with a dose of 5 mg/mL in phosphate-buffered saline. After incubation for 4 h at 37°C, the purple formazan crystals were dissolved with […] dimethyl sulfoxide and the absorbance was measured at 570 nm in an ELISA reader. Antiproliferative activity was expressed using the IC50 value defined as the concentration of synthetic podophyllotoxin derivatives inhibiting cell proliferation by 50%. The cell viability ratio was calculated by the following formula: cell viability ratio (%) = OD treated /OD control × 100% (Ma et al., [2014]).
(In general: Tetrazolium dyes change colour on reduction, which living cells bring about.)

Series [5] deals with HeLA (human cervical carcinoma). Kind of series: MTT growth inhibition assay, HeLA. The note with it: Homo sapiens, 48 h, read-out: IC50 (μM) HeLA, MTT, 48 h, n = 3. In kind it is cell-based. As to the method:
as §5, §6, §7

In series [6] the test system is H460 (human non-small cell lung carcinoma). Briefly: MTT growth inhibition assay, H460. It is filed as cell-based. The note with it: NCI-H460, 48 h, read-out: IC50 (μM) H460. As to the method: as §5, §6, §7
The test system of series [7] is T24 cells. Kind of series: Cell cycle distribution analysis (FACS, propidium iodide), T24. It is filed as cell-based, human. As for the experimental part:
as §3
as §4, with “T24 and HeLA cells were treated with compound 12g for 24 h at 37°C with concentrations of 0.5/1.0/2.0 and 0.75/1.5/3.0 μM, respectively.” left out

The test system of series [8] is EC9706 (human esophageal squamous cell carcinoma). Briefly: MTT growth inhibition assay, EC9706. In kind it is cell-based. The note with it: EC9706, 48 h, read-out: IC50 (μM) EC9706. As for the experimental part: as §5, §6, §7
Series [9] deals with T24 (human bladder carcinoma). Briefly: MTT growth inhibition assay, T24. It is filed as cell-based. As to conditions: T24, 48 h, read-out: IC50 (μM) T24, MTT, 48 h, n = 3. As for the experimental part:
as §5, §6, §7

Series [10] has as its system four human cancer cell lines (EC-9706, HeLA, T-24 and H460) and a normal human epidermal cell line (HaCaT). Briefly: MTT growth inhibition assay, whole cell line panel. In kind it is cell-based. The note with it: read-out: IC50 values across the cell lines. As for the experimental part: as §5, with “1. […]” for “1.”
The cytotoxicity of the synthesized compounds 12a–t against a panel of human cell lines was determined by the 3-(4,5-dimethylthiazol-2-yl)-2,5-diphenyltetrazoliun bromide (MTT) growth inhibition assay. […] After incubation for 4 h at 37°C, the purple formazan crystals were dissolved with […] dimethyl sulfoxide and the absorbance was measured at 570 nm in an ELISA reader. […] The cell viability ratio was calculated by the following formula: cell viability ratio (%) = OD treated /OD control × 100% (Ma et al., [2014]).

By IC50 is commonly meant the concentration that inhibits the measured activity by half. `CCCN(CCC)CC(=O)NC1c2cc3c(cc2C(c2cc(OC)c(O)c(OC)c2)C2C(=O)OCC12)OCO3` (centres unmarked) [Compound 12g]: the “apoptotic morphology (Hoechst 33258 staining)” value in the series with HeLA cells [1] is “markedly increased chromatin condensation, nuclear fragmentation and morphological changes”; with T24 cells [2] it was “markedly increased chromatin condensation, nuclear fragmentation and morphological changes”. In addition, the “Cell cycle phase (%) G2/M” value in the series on HeLA cells [3] (0.75 uM) is on record as 79.69%; in the series with HeLA cells [3] (1.5 uM) it was 89.18%; in the series with HeLA cells [3] (3 uM) it was 90.66%. For the same compound, the IC50 was over 50 µM in [4]; 2.34 ± 0.39 µM in series [5]; 24.2 ± 0.77 µM in series [6]; over 50 µM in series [8]; 2.98 ± 0.26 µM in [9]. Further, the “accumulation of T24 cells at G2/M phase” value in the series with T24 cells [7] (T24, 0.75 μM as printed in text) came out at 65.15%; in the series on T24 cells [7] (T24, 1.5 μM as printed in text) it was 62.76%; in the series with T24 cells [7] (T24, 3.0 μM as printed in text) it was 79.87%.

In general, melting point refers to the temperature of the solid-liquid transition. `CCCCNCC(=O)N[C@@H]1c2cc3c(cc2[C@@H](c2cc(OC)c(O)c(OC)c2)[C@H]2C(=O)OC[C@@H]21)OCO3` [Compound 12h]: the melting point fell in the range of 115 to 118 °C. Further, the IC50 in series [4] came to 1.54 ± 0.29 µM. Also, the IC50 in [5] turned out to be 1.21 ± 0.31 µM. In addition, the IC50 in series [6] came to 1.57 ± 0.37 µM. The concentration for half-maximal inhibition (IC50) in series [8] was found to be 22.8 ± 0.32 µM. Further, the IC50 in [9] turned out to be 12.1 ± 1.28 µM. Also, the half-maximal inhibitory concentration (IC50) in series [10] was 1200 to 22800 nM.
